Test system: recombinant NL4-3 virus (Renilla luciferase in nef, Gag P373S; NLRluc) in MT-2 cells
Experiment: whole plant or invertebrate
Type: cell-based, HIV
Settings: Renilla, NL43, luciferase activity in cells infected for 4-5 days with NLRluc recombinants, serial dilutions of inhibitor; class symbols (key in Table 1); read-out: EC50
In short: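 Luciferase signal is the read-out: after 4-5 days of infection in the presence of serially diluted compound, MT-2 cells are lysed with a premix of lysis buffer, luciferase reagent and Stop & Glo substrate, and luminescence is read immediately.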

Row | Compound | EC50 [nM]
1 | CC(C)[C@@H]1CC[C@]2(NCCN3CCC(S(C)(=O)=O)CC3)CC[C@]3(C)[C@H](CC[C@@H]4[C@@]5(C)CC[C@H](c6ccc(C(=O)O)cc6)C(C)(C)[C@@H]5CC[C@]43C)[C@@H]12 [Example B18, 4-((1S,3aS,5aR,5bR,7aS,9S,11aS,11bR,13aR,13bR)-1-isopropyl-5a,5b,8,8,11a-pentamethyl-3a-((2-(4-(methylsulfonyl)piperidin-1-yl)ethyl)amino)icosahydro-1H-cyclopenta[a]chrysen-9-yl)benzoic acid] | < 100
2 | C=C(C)[C@@H]1CC[C@]2(NCCN3CCN(S(=O)(=O)CC)CC3)CC[C@]3(C)[C@H](CC[C@@H]4[C@@]5(C)CC=C(c6ccc(C(=O)O)cc6)C(C)(C)[C@@H]5CC[C@]43C)[C@@H]12 [Example B19, 4-((1R,3aS,5aR,5bR,7aR,11aS,11bR,13aR,13bR)-3a-((2-(4-(ethylsulfonyl)piperazin-1-yl)ethyl)amino)-5a,5b,8,8,11a-pentamethyl-1-(prop-1-en-2-yl)-2,3,3a,4,5,5a,5b,6,7,7a,8,11,11a,11b,12,13,13a,13b-octadecahydro-1H-cyclopenta[a]chrysen-9-yl)benzoic acid] | < 100
3 | C=C(C)[C@@H]1CC[C@]2(NCCN3CCNCC3)CC[C@]3(C)[C@H](CC[C@@H]4[C@@]5(C)CC=C(c6ccc(C(=O)O)cc6)C(C)(C)[C@@H]5CC[C@]43C)[C@@H]12 [Example B20, 4-((1R,3aS,5aR,5bR,7aR,11aS,11bR,13aR,13bR)-5a,5b,8,8,11a-pentamethyl-3a-((2-(piperazin-1-yl)ethyl)amino)-1-(prop-1-en-2-yl)-2,3,3a,4,5,5a,5b,6,7,7a,8,11,11a,11b,12,13,13a,13b-octadecahydro-1H-cyclopenta[a]chrysen-9-yl)benzoic acid] | < 100
4 | C=C(C)[C@@H]1CC[C@]2(NCCNS(C)(=O)=O)CC[C@]3(C)[C@H](CC[C@@H]4[C@@]5(C)CC=C(c6ccc(C(=O)O)cc6)C(C)(C)[C@@H]5CC[C@]43C)[C@@H]12 [Example B21, 4-((1R,3aS,5aR,5bR,7aR,11aS,11bR,13aR,13bR)-5a,5b,8,8,11a-pentamethyl-3a-((2-(methylsulfonamido)ethyl)amino)-1-(prop-1-en-2-yl)-2,3,3a,4,5,5a,5b,6,7,7a,8,11,11a,11b,12,13,13a,13b-octadecahydro-1H-cyclopenta[a]chrysen-9-yl)benzoic acid] | < 100
5 | C=C(C)[C@@H]1CC[C@]2(NCCN3CCN(S(=O)(=O)C4CC4)CC3)CC[C@]3(C)[C@H](CC[C@@H]4[C@@]5(C)CC=C(c6ccc(C(=O)O)cc6)C(C)(C)[C@@H]5CC[C@]43C)[C@@H]12 [Example B22, 4-((1R,3aS,5aR,5bR,7aR,11aS,11bR,13aR,13bR)-3a-((2-(4-(cyclopropylsulfonyl)piperazin-1-yl)ethyl)amino)-5a,5b,8,8,11a-pentamethyl-1-(prop-1-en-2-yl)-2,3,3a,4,5,5a,5b,6,7,7a,8,11,11a,11b,12,13,13a,13b-octadecahydro-1H-cyclopenta[a]chrysen-9-yl)benzoic acid] | < 100
6 | C=C(C)[C@@H]1CC[C@]2(NCCN3CCN(S(=O)(=O)CCC)CC3)CC[C@]3(C)[C@H](CC[C@@H]4[C@@]5(C)CC=C(c6ccc(C(=O)O)cc6)C(C)(C)[C@@H]5CC[C@]43C)[C@@H]12 [Example B23, 4-((1R,3aS,5aR,5bR,7aR,11aS,11bR,13aR,13bR)-5a,5b,8,8,11a-pentamethyl-1-(prop-1-en-2-yl)-3a-((2-(4-(propylsulfonyl)piperazin-1-yl)ethyl)amino)-2,3,3a,4,5,5a,5b,6,7,7a,8,11,11a,11b,12,13,13a,13b-octadecahydro-1H-cyclopenta[a]chrysen-9-yl)benzoic acid] | < 100
7 | C=C(C)[C@@H]1CC[C@]2(NCCN3CCN(C(C)=O)CC3)CC[C@]3(C)[C@H](CC[C@@H]4[C@@]5(C)CC=C(c6ccc(C(=O)O)cc6)C(C)(C)[C@@H]5CC[C@]43C)[C@@H]12 [Example B24, 4-((1R,3aS,5aR,5bR,7aR,11aS,11bR,13aR,13bR)-3a-((2-(4-acetylpiperazin-1-yl)ethyl)amino)-5a,5b,8,8,11a-pentamethyl-1-(prop-1-en-2-yl)-2,3,3a,4,5,5a,5b,6,7,7a,8,11,11a,11b,12,13,13a,13b-octadecahydro-1H-cyclopenta[a]chrysen-9-yl)benzoic acid] | < 100
8 | C=C(C)[C@@H]1CC[C@]2(NCCN3CCN(C(=O)C(=O)N(C)C)CC3)CC[C@]3(C)[C@H](CC[C@@H]4[C@@]5(C)CC=C(c6ccc(C(=O)O)cc6)C(C)(C)[C@@H]5CC[C@]43C)[C@@H]12 [Example B25, 4-((1R,3aS,5aR,5bR,7aR,11aS,11bR,13aR,13bR)-3a-((2-(4-(2-(dimethylamino)-2-oxoacetyl)piperazin-1-yl)ethyl)amino)-5a,5b,8,8,11a-pentamethyl-1-(prop-1-en-2-yl)-2,3,3a,4,5,5a,5b,6,7,7a,8,11,11a,11b,12,13,13a,13b-octadecahydro-1H-cyclopenta[a]chrysen-9-yl)benzoic acid] | < 100
9 | C=C(C)[C@@H]1CC[C@]2(NCCN3CCN(S(=O)(=O)C(C)C)CC3)CC[C@]3(C)[C@H](CC[C@@H]4[C@@]5(C)CC=C(c6ccc(C(=O)O)cc6)C(C)(C)[C@@H]5CC[C@]43C)[C@@H]12 [Example B26, 4-((1R,3aS,5aR,5bR,7aR,11aS,11bR,13aR,13bR)-3a-((2-(4-(isopropylsulfonyl)piperazin-1-yl)ethyl)amino)-5a,5b,8,8,11a-pentamethyl-1-(prop-1-en-2-yl)-2,3,3a,4,5,5a,5b,6,7,7a,8,11,11a,11b,12,13,13a,13b-octadecahydro-1H-cyclopenta[a]chrysen-9-yl)benzoic acid] | < 100
10 | C=C(C)[C@@H]1CC[C@]2(NCCN3CCN(C(C)(C)C)CC3)CC[C@]3(C)[C@H](CC[C@@H]4[C@@]5(C)CC=C(c6ccc(C(=O)O)cc6)C(C)(C)[C@@H]5CC[C@]43C)[C@@H]12 [Example B27, 4-((1R,3aS,5aR,5bR,7aR,11aS,11bR,13aR,13bR)-3a-((2-(4-(tert-butyl)piperazin-1-yl)ethyl)amino)-5a,5b,8,8,11a-pentamethyl-1-(prop-1-en-2-yl)-2,3,3a,4,5,5a,5b,6,7,7a,8,11,11a,11b,12,13,13a,13b-octadecahydro-1H-cyclopenta[a]chrysen-9-yl)benzoic acid] | < 100
11 | C=C(C)[C@@H]1CC[C@]2(NCCN3CCN(C)CC3)CC[C@]3(C)[C@H](CC[C@@H]4[C@@]5(C)CC=C(c6ccc(C(=O)O)cc6)C(C)(C)[C@@H]5CC[C@]43C)[C@@H]12 [Example B28, 4-((1R,3aS,5aR,5bR,7aR,11aS,11bR,13aR,13bR)-5a,5b,8,8,11a-pentamethyl-3a-((2-(4-methylpiperazin-1-yl)ethyl)amino)-1-(prop-1-en-2-yl)-2,3,3a,4,5,5a,5b,6,7,7a,8,11,11a,11b,12,13,13a,13b-octadecahydro-1H-cyclopenta[a]chrysen-9-yl)benzoic acid] | < 100
12 | C=C(C)[C@@H]1CC[C@]2(NCCN3CCN(C(=O)C(=O)N4CCCCC4)CC3)CC[C@]3(C)[C@H](CC[C@@H]4[C@@]5(C)CC=C(c6ccc(C(=O)O)cc6)C(C)(C)[C@@H]5CC[C@]43C)[C@@H]12 [Example B29, 4-((1R,3aS,5aR,5bR,7aR,11aS,11bR,13aR,13bR)-5a,5b,8,8,11a-pentamethyl-3a-((2-(4-(2-oxo-2-(piperidin-1-yl)acetyl)piperazin-1-yl)ethyl)amino)-1-(prop-1-en-2-yl)-2,3,3a,4,5,5a,5b,6,7,7a,8,11,11a,11b,12,13,13a,13b-octadecahydro-1H-cyclopenta[a]chrysen-9-yl)benzoic acid] | < 100
13 | C=C(C)[C@@H]1CC[C@]2(NCCNS(=O)(=O)C(C)C)CC[C@]3(C)[C@H](CC[C@@H]4[C@@]5(C)CC=C(c6ccc(C(=O)O)cc6)C(C)(C)[C@@H]5CC[C@]43C)[C@@H]12 [Example B30, 4-((1R,3aS,5aR,5bR,7aR,11aS,11bR,13aR,13bR)-5a,5b,8,8,11a-pentamethyl-3a-((2-(1-methylethylsulfonamido)ethyl)amino)-1-(prop-1-en-2-yl)-2,3,3a,4,5,5a,5b,6,7,7a,8,11,11a,11b,12,13,13a,13b-octadecahydro-1H-cyclopenta[a]chrysen-9-yl)benzoic acid] | < 100
14 | C=C(C)[C@@H]1CC[C@]2(NCCNS(=O)(=O)C3CC3)CC[C@]3(C)[C@H](CC[C@@H]4[C@@]5(C)CC=C(c6ccc(C(=O)O)cc6)C(C)(C)[C@@H]5CC[C@]43C)[C@@H]12 [Example B31, 4-((1R,3aS,5aR,5bR,7aR,11aS,11bR,13aR,13bR)-3a-((2-(cyclopropanesulfonamido)ethyl)amino)-5a,5b,8,8,11a-pentamethyl-1-(prop-1-en-2-yl)-2,3,3a,4,5,5a,5b,6,7,7a,8,11,11a,11b,12,13,13a,13b-octadecahydro-1H-cyclopenta[a]chrysen-9-yl)benzoic acid] | < 100
15 | C=C(C)[C@@H]1CC[C@]2(NCCN3CCCCS3(=O)=O)CC[C@]3(C)[C@H](CC[C@@H]4[C@@]5(C)CC=C(c6ccc(C(=O)O)cc6)C(C)(C)[C@@H]5CC[C@]43C)[C@@H]12 [Example B32, 4-((1R,3aS,5aR,5bR,7aR,11aS,11bR,13aR,13bR)-3a-((2-(1,1-dioxido-1,2-thiazinan-2-yl)ethyl)amino)-5a,5b,8,8,11a-pentamethyl-1-(prop-1-en-2-yl)-2,3,3a,4,5,5a,5b,6,7,7a,8,11,11a,11b,12,13,13a,13b-octadecahydro-1H-cyclopenta[a]chrysen-9-yl)benzoic acid] | < 100
